From publication PMC5298231, “The Malaria Parasite's Lactate Transporter PfFNT Is the Target of Antiplasmodial Compounds Identified in Whole Cell Phenotypic Screens” (PLoS Pathogens, 2017)
Peptide text beside a SMILES is read from it.

Tested on: erythrocytes infected with 3D7 trophozoites
Type: cell-based, Plasmodium falciparum
Conditions: sheet Ratio; for Ratio of metabolite abundance, Exp1_1hr: Exp1, 1hr; for Ratio of metabolite abundance, Exp1_3hr: Exp1, 3hr; for Ratio of metabolite abundance, Exp1_6hr: Exp1, 6hr; for Ratio of metabolite abundance, Exp2_1hr: Exp2, 1hr; for Ratio of metabolite abundance, Exp2_3hr: Exp2, 3hr; for Ratio of metabolite abundance, Exp2_6hr: Exp2, 6hr; for Ratio of metabolite abundance, Exp3_1hr: Exp3, 1hr; for Ratio of metabolite abundance, Exp3_3hr: Exp3, 3hr; for Ratio of metabolite abundance, Exp3_6hr: Exp3, 6hr

## O=C(CO)COP(=O)(O)O [Glycerone phosphate]
  Ratio of metabolite abundance, Exp1_1hr: 2.2
  Ratio of metabolite abundance, Exp1_3hr: 2.096
  Ratio of metabolite abundance, Exp1_6hr: 0.8912
  Ratio of metabolite abundance, Exp2_1hr: 1.254
  Ratio of metabolite abundance, Exp2_3hr: 1.043
  Ratio of metabolite abundance, Exp2_6hr: 0.7007
  Ratio of metabolite abundance, Exp3_1hr: 1.243
  Ratio of metabolite abundance, Exp3_3hr: 1.057
  Ratio of metabolite abundance, Exp3_6hr: 0.7275

## CC(C)C[C@H](NC(=O)[C@@H](N)Cc1cnc[nH]1)C(=O)N[C@@H](CC(=O)O)C(=O)O [HLD] (H-His-Leu-Asp-OH)
  Ratio of metabolite abundance, Exp1_1hr: 0.6785
  Ratio of metabolite abundance, Exp1_3hr: 0.3938
  Ratio of metabolite abundance, Exp1_6hr: 1.496
  Ratio of metabolite abundance, Exp2_1hr: 0.9181
  Ratio of metabolite abundance, Exp2_3hr: 0.5663
  Ratio of metabolite abundance, Exp2_6hr: 1.359
  Ratio of metabolite abundance, Exp3_1hr: 0.7775
  Ratio of metabolite abundance, Exp3_3hr: 0.6588
  Ratio of metabolite abundance, Exp3_6hr: 1.57

## CC(C)[C@H](NC(=O)[C@@H](N)Cc1c[nH]cn1)C(=O)N[C@@H](CC(=O)O)C(=O)N[C@@H](CC(=O)O)C(=O)O [HVDD] (H-HVDD-OH)
  Ratio of metabolite abundance, Exp1_1hr: 0.5307
  Ratio of metabolite abundance, Exp1_3hr: 0.3298
  Ratio of metabolite abundance, Exp1_6hr: 0.7281
  Ratio of metabolite abundance, Exp2_1hr: 0.7593
  Ratio of metabolite abundance, Exp2_3hr: 0.3961
  Ratio of metabolite abundance, Exp2_6hr: 1.162
  Ratio of metabolite abundance, Exp3_1hr: 0.6174
  Ratio of metabolite abundance, Exp3_3hr: 0.4236
  Ratio of metabolite abundance, Exp3_6hr: 1.2463

## O=C(O)[C@@H]1CC(O)CN1 (stereo partly drawn) [Hydroxy-L-proline]
  Ratio of metabolite abundance, Exp1_1hr: 1.2334
  Ratio of metabolite abundance, Exp1_3hr: 0.9688
  Ratio of metabolite abundance, Exp1_6hr: 0.6326
  Ratio of metabolite abundance, Exp2_1hr: 1.182
  Ratio of metabolite abundance, Exp2_3hr: 1.17
  Ratio of metabolite abundance, Exp2_6hr: 1.132
  Ratio of metabolite abundance, Exp3_1hr: 1.1402
  Ratio of metabolite abundance, Exp3_3hr: 1.1046
  Ratio of metabolite abundance, Exp3_6hr: 1.082

## O=c1[nH]cnc2c1ncn2[C@@H]1O[C@H](COP(=O)(O)OP(=O)(O)O)[C@@H](O)[C@H]1O [IDP]
  Ratio of metabolite abundance, Exp1_1hr: 0.8853
  Ratio of metabolite abundance, Exp1_3hr: 1.384
  Ratio of metabolite abundance, Exp1_6hr: 1.314
  Ratio of metabolite abundance, Exp2_1hr: 0.5363
  Ratio of metabolite abundance, Exp2_3hr: 0.6148
  Ratio of metabolite abundance, Exp2_6hr: 0.824
  Ratio of metabolite abundance, Exp3_1hr: 1.461
  Ratio of metabolite abundance, Exp3_3hr: 1.458
  Ratio of metabolite abundance, Exp3_6hr: 1.561

## CC(C)C[C@H](N)C(=O)N[C@@H](CC(=O)O)C(=O)O [LD] (H-Leu-Asp-OH)
  Ratio of metabolite abundance, Exp1_1hr: 1.295
  Ratio of metabolite abundance, Exp1_3hr: 0.7458
  Ratio of metabolite abundance, Exp1_6hr: 0.9103
  Ratio of metabolite abundance, Exp2_1hr: 1.486
  Ratio of metabolite abundance, Exp2_3hr: 1.077
  Ratio of metabolite abundance, Exp2_6hr: 1.185
  Ratio of metabolite abundance, Exp3_1hr: 1.151
  Ratio of metabolite abundance, Exp3_3hr: 1.268
  Ratio of metabolite abundance, Exp3_6hr: 1.201

## CC(O)C(=O)O (stereo not drawn) [Lactate]
  Ratio of metabolite abundance, Exp1_1hr: 8.023
  Ratio of metabolite abundance, Exp1_3hr: 5.339
  Ratio of metabolite abundance, Exp1_6hr: 5.015
  Ratio of metabolite abundance, Exp2_1hr: 5.913
  Ratio of metabolite abundance, Exp2_3hr: 7.877
  Ratio of metabolite abundance, Exp2_6hr: 8.247
  Ratio of metabolite abundance, Exp3_1hr: 2.842
  Ratio of metabolite abundance, Exp3_3hr: 5.6661
  Ratio of metabolite abundance, Exp3_6hr: 4.424

## CC(=O)N[C@@H](CCC(=O)O)C(=O)O [N-Acetyl-glutamate]
  Ratio of metabolite abundance, Exp1_1hr: 1.252
  Ratio of metabolite abundance, Exp1_3hr: 0.8243
  Ratio of metabolite abundance, Exp1_6hr: 0.4492
  Ratio of metabolite abundance, Exp2_1hr: 1.417
  Ratio of metabolite abundance, Exp2_3hr: 0.7877
  Ratio of metabolite abundance, Exp2_6hr: 0.6113
  Ratio of metabolite abundance, Exp3_1hr: 0.5549
  Ratio of metabolite abundance, Exp3_3hr: 0.2844
  Ratio of metabolite abundance, Exp3_6hr: 0.3771

## NC(=O)N[C@@H](CC(=O)O)C(=O)O [N-Carbamoyl-L-aspartate]
  Ratio of metabolite abundance, Exp1_1hr: 0.3523
  Ratio of metabolite abundance, Exp1_3hr: 0.4866
  Ratio of metabolite abundance, Exp1_6hr: 0.4355
  Ratio of metabolite abundance, Exp2_1hr: 0.4532
  Ratio of metabolite abundance, Exp2_3hr: 0.2641
  Ratio of metabolite abundance, Exp2_6hr: 0.4319
  Ratio of metabolite abundance, Exp3_1hr: 0.3568
  Ratio of metabolite abundance, Exp3_3hr: 0.3426
  Ratio of metabolite abundance, Exp3_6hr: 0.2976

## NC(=O)c1ccc[n+]([C@@H]2O[C@H](COP(=O)([O-])OP(=O)(O)OC[C@H]3O[C@@H](n4cnc5c(N)ncnc54)[C@H](O)[C@@H]3O)[C@@H](O)[C@H]2O)c1 [NAD+]
  Ratio of metabolite abundance, Exp1_1hr: 1.033
  Ratio of metabolite abundance, Exp1_3hr: 0.9084
  Ratio of metabolite abundance, Exp1_6hr: 1.09
  Ratio of metabolite abundance, Exp2_1hr: 0.9571
  Ratio of metabolite abundance, Exp2_3hr: 1.088
  Ratio of metabolite abundance, Exp2_6hr: 1.117
  Ratio of metabolite abundance, Exp3_1hr: 1.081
  Ratio of metabolite abundance, Exp3_3hr: 1.082
  Ratio of metabolite abundance, Exp3_6hr: 1.084

## NC(=O)C1=CN([C@@H]2O[C@H](COP(=O)(O)OP(=O)(O)OC[C@H]3O[C@@H](n4cnc5c(N)ncnc54)[C@H](O)[C@@H]3O)[C@@H](O)[C@H]2O)C=CC1 [NADH]
  Ratio of metabolite abundance, Exp1_1hr: 0.4095
  Ratio of metabolite abundance, Exp1_3hr: 0.2777
  Ratio of metabolite abundance, Exp1_6hr: 0.1491
  Ratio of metabolite abundance, Exp2_1hr: 0.4801
  Ratio of metabolite abundance, Exp2_3hr: 0.5784
  Ratio of metabolite abundance, Exp2_6hr: 0.1509
  Ratio of metabolite abundance, Exp3_1hr: 0.301
  Ratio of metabolite abundance, Exp3_3hr: 0.1742
  Ratio of metabolite abundance, Exp3_6hr: 0.1364

## NC(=O)c1ccc[n+]([C@@H]2O[C@H](COP(=O)([O-])OP(=O)(O)OC[C@H]3O[C@@H](n4cnc5c(N)ncnc54)[C@H](OP(=O)(O)O)[C@@H]3O)[C@@H](O)[C@H]2O)c1 [NADP+]
  Ratio of metabolite abundance, Exp1_1hr: 0.7131
  Ratio of metabolite abundance, Exp1_3hr: 0.6937
  Ratio of metabolite abundance, Exp1_6hr: 0.7662
  Ratio of metabolite abundance, Exp2_1hr: 1.042
  Ratio of metabolite abundance, Exp2_3hr: 0.9729
  Ratio of metabolite abundance, Exp2_6hr: 0.8073
  Ratio of metabolite abundance, Exp3_1hr: 0.7811
  Ratio of metabolite abundance, Exp3_3hr: 0.7388
  Ratio of metabolite abundance, Exp3_6hr: 0.8166

## O=C(O)c1cc(=O)[nH]c(=O)[nH]1 [Orotate]
  Ratio of metabolite abundance, Exp1_1hr: 0.5025
  Ratio of metabolite abundance, Exp1_3hr: 0.4692
  Ratio of metabolite abundance, Exp1_6hr: 0.3315
  Ratio of metabolite abundance, Exp2_1hr: 0.4622
  Ratio of metabolite abundance, Exp2_3hr: 0.4131
  Ratio of metabolite abundance, Exp2_6hr: 0.4313
  Ratio of metabolite abundance, Exp3_1hr: 0.3435
  Ratio of metabolite abundance, Exp3_3hr: 0.2448
  Ratio of metabolite abundance, Exp3_6hr: 0.2332

## C[C@H](NC(=O)[C@@H]1CCCN1)C(=O)N[C@@H](CCC(=O)O)C(=O)N[C@@H](Cc1ccccc1)C(=O)O [PAEF] (H-PAEF-OH)
  Ratio of metabolite abundance, Exp1_1hr: 0.6152
  Ratio of metabolite abundance, Exp1_3hr: 0.1924
  Ratio of metabolite abundance, Exp1_6hr: 1.448
  Ratio of metabolite abundance, Exp2_1hr: 0.9598
  Ratio of metabolite abundance, Exp2_3hr: 0.5962
  Ratio of metabolite abundance, Exp2_6hr: 1.961
  Ratio of metabolite abundance, Exp3_1hr: 0.6833
  Ratio of metabolite abundance, Exp3_3hr: 0.575
  Ratio of metabolite abundance, Exp3_6hr: 1.883

## CC(C)[C@H](NC(=O)[C@H](C)NC(=O)[C@@H]1CCCN1)C(=O)N[C@@H](Cc1c[nH]cn1)C(=O)O [PAVH]
  Ratio of metabolite abundance, Exp1_1hr: 0.3897
  Ratio of metabolite abundance, Exp1_3hr: 0.1614
  Ratio of metabolite abundance, Exp1_6hr: 0.8308
  Ratio of metabolite abundance, Exp2_1hr: 0.6106
  Ratio of metabolite abundance, Exp2_3hr: 0.3696
  Ratio of metabolite abundance, Exp2_6hr: 0.9246
  Ratio of metabolite abundance, Exp3_1hr: 0.514
  Ratio of metabolite abundance, Exp3_3hr: 0.3038
  Ratio of metabolite abundance, Exp3_6hr: 1.108

## CC(C)[C@H](NC(=O)[C@H](C)NC(=O)[C@H](CC(=O)O)NC(=O)[C@@H]1CCCN1)C(=O)O [PDAV] (H-PDAV-OH)
  Ratio of metabolite abundance, Exp1_1hr: 1.025
  Ratio of metabolite abundance, Exp1_3hr: 1.041
  Ratio of metabolite abundance, Exp1_6hr: 2.029
  Ratio of metabolite abundance, Exp2_1hr: 1.45
  Ratio of metabolite abundance, Exp2_3hr: 1.498
  Ratio of metabolite abundance, Exp2_6hr: 2.552
  Ratio of metabolite abundance, Exp3_1hr: 1.376
  Ratio of metabolite abundance, Exp3_3hr: 1.38
  Ratio of metabolite abundance, Exp3_6hr: 2.341

## O=C(O)C[C@H](NC(=O)[C@@H]1CCCN1)C(=O)O [PD] (H-Pro-Asp-OH)
  Ratio of metabolite abundance, Exp1_1hr: 1.093
  Ratio of metabolite abundance, Exp1_3hr: 0.9772
  Ratio of metabolite abundance, Exp1_6hr: 1.538
  Ratio of metabolite abundance, Exp2_1hr: 1.264
  Ratio of metabolite abundance, Exp2_3hr: 1.209
  Ratio of metabolite abundance, Exp2_6hr: 2.9187
  Ratio of metabolite abundance, Exp3_1hr: 1.287
  Ratio of metabolite abundance, Exp3_3hr: 1.3146
  Ratio of metabolite abundance, Exp3_6hr: 2.682

## O=C(O)CC[C@H](NC(=O)[C@H](CCC(=O)O)NC(=O)[C@@H]1CCCN1)C(=O)O [PEE] (H-Pro-Glu-Glu-OH)
  Ratio of metabolite abundance, Exp1_1hr: 1.088
  Ratio of metabolite abundance, Exp1_3hr: 0.6949
  Ratio of metabolite abundance, Exp1_6hr: 2.228
  Ratio of metabolite abundance, Exp2_1hr: 1.338
  Ratio of metabolite abundance, Exp2_3hr: 0.8845
  Ratio of metabolite abundance, Exp2_6hr: 1.822
  Ratio of metabolite abundance, Exp3_1hr: 1.136
  Ratio of metabolite abundance, Exp3_3hr: 1.044
  Ratio of metabolite abundance, Exp3_6hr: 2.15

## O=C(O)CC[C@H](NC(=O)[C@@H]1CCCN1)C(=O)O [PE] (H-Pro-Glu-OH)
  Ratio of metabolite abundance, Exp1_1hr: 2.339
  Ratio of metabolite abundance, Exp1_3hr: 1.989
  Ratio of metabolite abundance, Exp1_6hr: 3.207
  Ratio of metabolite abundance, Exp2_1hr: 2.25
  Ratio of metabolite abundance, Exp2_3hr: 1.648
  Ratio of metabolite abundance, Exp2_6hr: 3.078
  Ratio of metabolite abundance, Exp3_1hr: 2.352
  Ratio of metabolite abundance, Exp3_3hr: 2.042
  Ratio of metabolite abundance, Exp3_6hr: 3.469
